For the test, the system named is Cutibacterium acnes. The test is described as follows: In vitro growth of C. acnes by OD at 600 nm in kinetic for 49 hours, anaerobic. It counts as cell-based. The settings on record: oat xylitol alone. The method, then: In the present study, the effects of 4 compounds and 5 combinations were evaluated on the growth of two bacterial strains: Staphylococcus epidermidis (S. epidermidis) and Cutibacterium acnes (C. acnes). The bacterial strains were grown individually, and the growth of each bacterial strain was determined in presence of the compounds or combinations by optical density (OD) measurement at 600 nm in kinetic for 24 hours for S. epidermidis strain and for 49 hours for C. acnes strain to determine a bacterial growth curve. To determine the effect of the test compounds and combinations on the growth of bacteria, bacterial suspensions were transferred in a 96-well plate containing the compounds, the combinations or glucose tested at 0.1% and 1%. Bacterial cultures were incubated at 37° C. under agitation and under anaerobic condition for C. acnes strain. All experimental conditions were performed in n=3. Optical densities at 600 nm (OD600 nm) were then read in kinetic for 24 hours for S. epidermidis strain and 49 hours for C. acnes strain using a microplate spectrophotometer (EPOCH2, BioTek Instruments). Raw data were analysed using GraphPad PRISM software (growth curves).

As for `OC[C@@H](O)[C@H](O)[C@@H](O)CO` [Xylitol], the “growth of C. acnes” value is “inhibits”.

The record behind these values is patent US20250170050A1, “Use of Nordic plant-based ingredients for supporting a healthy skin microbiome” (Lumene Oy, priority 2022, published 2025).
